Laboratory results reported in patent US10342766B2, “6-shogaol derivatives and activities thereof” (North Carolina Agricultural and Technical State University, priority 2017, dated 2019).
Where “and” joins values, the source holds several entries; their conditions need not be identical. Identical values can stand only once.

Experiments:
Nrf2 = Nrf2 reporter activity by Tg(gstp1:GFP) fluorescence in transgenic zebrafish embryos; assay type: in vivo; settings: 5 μM, 24-hour treatment from 1 dpf to 2 dpf; olfactory epithelia; relative to vehicle (DMSO = 1.00)
Experimental: Zebrafish AB transgenic strains Tg(gstp1:GFP) were maintained in a Pentair Aquatic Ecosystem (Apopka, Fla., United States of America) fish housing unit with 14 h light/10 h dark cycle (see Tsujita, T., Li, L., Nakajima, H., Iwamoto, N., Nakajima-Takagi, Y., Ohashi, K., Kawakami, K., Kumagai, Y., Freeman, B. A., Yamamoto, M., and Kobayashi, M. (2011) “Nitro-fatty acids and cyclopentenone prostaglandins share strategies to activate the Keap1-Nrf2 system: a study using green fluorescent protein transgenic zebrafish.” Genes Cells 16, 46-57). The fish embryos were maintained at 28.5° C. in 0.3× Danieau's solution (19.3 mM NaCl, 0.23 mM KCl, 0.13 mM MgSO4, 0.2 mM Ca(NO3)2, 1.7 mM HEPES, pH 7.0) containing 30 μg/ml phenylthiourea (PTU) to inhibit pigmentation. Tg(gstp1:GFP) cross with AB wild-type strain fluorescence embryos were used for the experiment. Zebrafish embryos were washed, dechorionated and anaesthetized before observations, and fluorescence imaging for analysis.
Transgenic zebrafish embryos at 1 day-post-fertilization (dpf) were dechorionated and placed in Petri dishes containing different chemicals diluted in 0.3× Danieau's solution containing PTU. The chemical stock was dissolved in DMSO at 5 mM concentration.
An Olympus MVX10 Fluorescence Macroscope (Olympus, Center Valley, Pa., United States of America) equipped with a Hamamatsu C9300-221 high-speed digital CCD camera (Hamamatsu City, Japan) was used for fluorescence microscopy. Tg(gstp1:GFP) fluorescent embryos were anaesthetized in tricaine and imaged at 2 dpf. MetaMorph Basic software (Olympus, Center Valley, Pa., United States of America) was used for image acquisition and analysis.
Quantification of Nrf2 Reporter Activity by Tg(gstp1:
GFP) Fluoresence in Zebrafish Model. The fluorescence intensity of the olfactory neural epithelia was quantitated using MetaMorph Basic software. In brief, GFP expression in the olfactory regions of Tg(gstp1:GFP) embryos treated with various chemicals was measured after 24-hour treatment from 1 dpf to 2 dpf. The GFP induction was detectable by fluorescence signal at the area of the olfactory epithelia in the anterior of the head region, the intensity was measured using an area of a circle of 60 pixel diameter of the fluorescence olfactory epithelia subtracted by a background non-fluorescence area next to the zebrafish embryo. Both the left and right olfactory epithelia were measured to give an average fluorescence value. The values are an average of measurements from at least 10 embryos.

[1] = Biotransformation in zebrafish embryos (cysteine conjugates, LC/MS); assay type: in vivo; settings: 5 μM in incubation medium, 8 hpf to 24 hpf
Experimental: Fifty zebrafish embryos at the 8 hour-post-fertilization (hpf) stage were incubated at 28.5° C. in 0.3× Danieau's solution (19.3 mM NaCl, 0.23 mM KCl, 0.13 mM MgSO4, 0.2 mM Ca(NO3)2, 1.7 mM HEPES, pH 7.0) with or without 5 μM 18 and 25-27, respectively. At 24 hpf, embryos were dechorionated manually and the chorions were carefully removed one by one from the culture medium. The zebrafish embryos were harvested and kept at −80° C. till analyzed by LC/MS.
200 μL Sodium acetate buffer solution (pH 5.0) was added to 50 zebrafish embryos. Samples were homogenized for 90 s by an Omni Bead Ruptor Homogenizer (Kennesaw, Ga., United States of America). 10 μL 10% ascorbic acid and 300 μL sodium acetate buffer were added to the homogenates. The mixture was incubated in the presence of β-glucuronidase (250 U) and sulfatase (3 U) at 37° C. for 45 min, and then 600 μL MeOH with 1% acetic acid was added. The resulting mixture was vortexed for 30 s and then centrifuged at 17000 g for 10 min. The supernatant was removed and evaporated under a gentle stream of nitrogen. The residue was reconstituted in 150 μL 90% MeOH with 0.2% acetic acid (AA), and 10 μL was analyzed directly by LC/MS.
LC/MS analysis was carried out with a Thermo-Finnigan Spectra System, which consisted of an Accela high speed MS pump, an Accela refrigerated autosampler, and an LCQ Fleet ion trap mass detector (Thermo Electron, San Jose, Calif., United States of America) incorporated with an electrospray ionization (ESI) interface. A Gemini-NX C18 column (150 mm×4.6 mm i.d., 5 μm; Phenomenex, Torrance, Calif., United States of America) was used for separation at a flow rate of 0.3 mL/min. The column was eluted with 100% A (5% aqueous methanol with 0.2% formic acid) for 1 min, followed by linear increases in B (95% aqueous methanol with 0.2% formic acid) to 55% from 1 to 4 min, to 85% from 4 to 25 min, then to 100% B from 25 to 30 min, and then with 100% B from 30 to 35 min. The column was then re-equilibrated with 100% A for 5 min. The LC eluent was introduced into the ESI interface. The positive ion polarity mode was set for the ESI source with the voltage on the ESI interface maintained at approximately 4.6 kV. Nitrogen gas was used as the sheath gas and auxiliary gas. Optimized source parameters, including capillary temperature (260° C.), sheath gas flow rate (31 arbitrary units), auxiliary gas flow rate (16 units), tube lens (34 V), and capillary voltage 9 V, were tuned using authentic samples. The collision-induced dissociation (CID) was conducted with an isolation width 2 Da and normalized collision energy of 35 for MS^2. The mass range was measured from 100 to 800 m/z. Data acquisition was performed with Xcalibur version 2.0 (Thermo Electron, San Jose, Calif., United States of America).

[2] = test system: human colon cancer cells HT-29; test: MTT growth inhibition, HT-29; assay type: cell-based; settings: 24 hours
Experimental: (§1) Cell viability was determined by an MTT colorimetric assay. Briefly, human colon cancer cells HCT-116 or HT-29, were plated in 96-well microtiter plates with 3000 cells/well and allowed to attach for 24 hours at 37° C. and 5% CO2. The test compounds (in DMSO) were added to cell culture medium to desired final concentrations (final DMSO concentrations for control and treatments were 0.1%). After the cells were cultured for 24 hours, the medium was aspirated and cells were treated with 200 μL fresh medium containing 2.41 mmol/L MTT. After incubation for 3 hours at 37° C., the medium containing MTT was aspirated, 100 μL of DMSO was added to solubilize the formazan precipitate, and the plates were shaken gently for an hour at room temperature. Absorbance values were derived from the plate reading at 550 nm on a Biotek (Winooski, Vt., United States of America) microtiter plate reader. The reading reflected the number of viable cells and was expressed as a percentage of viable cells in the control. CCD-18Co cells were grown in EMEM. Both HCT-116 and HT-29 cells were cultured in McCoy's 5A medium. All of the above media were supplemented with 10% fetal bovine serum, 1% penicillin/streptomycin, and 1% glutamine, and the cells were kept in a 37° C. incubator with 95% humidity and 5% CO2.

[3] = test system: human colon cancer cells HCT-116; test: MTT growth inhibition, HCT-116; assay type: cell-based; settings: 24 hours
Experimental: as §1

IC50 [2]: 11.5 µM
IC50 [3]: 5.42 µM
Compound: CCCCC/C=C/C(=O)/C=C/c1ccc(O)c(O)c1 [Compound 26]
Ratio/CTL, Tg(gstp1:GFP) fluorescence signal (Nrf2): 6.96 and 6.96 ± 0.48
Cysteine conjugates found in zebrafish embryos [1]: Three conjugates 37, 37b, and 38 were detected
